# Target: T1, P2X7R (Homo sapiens, UniProt Q99572)
# T1 construct: expressed in transfected cells; host or cells: HEK-293
# T1 sequence (Q99572 1-595): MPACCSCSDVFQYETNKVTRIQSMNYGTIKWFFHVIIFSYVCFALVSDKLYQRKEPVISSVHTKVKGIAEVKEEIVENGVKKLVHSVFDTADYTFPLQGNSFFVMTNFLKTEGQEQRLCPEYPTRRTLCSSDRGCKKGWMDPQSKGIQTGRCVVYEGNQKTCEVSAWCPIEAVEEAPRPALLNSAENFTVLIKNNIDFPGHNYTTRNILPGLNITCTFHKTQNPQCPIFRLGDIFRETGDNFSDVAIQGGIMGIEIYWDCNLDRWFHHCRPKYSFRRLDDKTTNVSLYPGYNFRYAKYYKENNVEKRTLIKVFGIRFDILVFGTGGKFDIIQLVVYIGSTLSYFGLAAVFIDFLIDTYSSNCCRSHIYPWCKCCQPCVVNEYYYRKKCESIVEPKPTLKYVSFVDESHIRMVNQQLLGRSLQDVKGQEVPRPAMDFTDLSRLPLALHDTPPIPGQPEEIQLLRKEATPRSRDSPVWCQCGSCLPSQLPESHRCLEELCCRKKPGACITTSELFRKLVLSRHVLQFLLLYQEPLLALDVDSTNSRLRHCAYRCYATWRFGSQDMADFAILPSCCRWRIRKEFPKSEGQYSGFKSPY
# Test: Yo-Pro-1 uptake assay (Yo-Pro-1 Assay) in HEK-293 cells transiently transfected with P2X7R
# Format: cell-based
# Settings: for remaining activity at 5 µM: HEK293, read-out: Percentage of activity remains in the presence of the compound at 5 μM, P2X7R (Yo-Pro-1 Assay); for IC50: HEK-293 cells transiently transfected with P2X7R, 30 μM bzATP as stimulus, readings 1 hour after stimulation, estimated from dose-response curves
# Text: Yo-Pro-1 Iodide (Cat. No Y3603 from Fisher Scientific) is a fluorescent DNA-binding dye with a MW of 629 Da. This method is based upon the Yo-Pro-1 entrance to cells through the dilated or “large pore form” of P2X7R and its binding to intracellular DNA whereby it increases its fluorescence intensity (J. Pharmacol. Exp. Ther. 308, 1053-1061). The dye has an absorption spectrum compatible with excitation at 488 nm by argon laser sources and its emission wavelength is in the range of 515-575 nm. This Yo-Pro-1 uptake was measured in HEK-293 cells transiently transfected with P2X7R (J. Biol. Chem. 290, 7930-7942). In Brief, HEK-293 cells were seeded in growth medium at approximately 20,000 cells/well in a 96-well plate on day 1. Transfection was performed on day 2 using Lipofectamine 2000 with the P2X7R DNA plasmid at the concentration of 1.7 μg/ml. The transfection solution was replaced with the growth medium 4 hours later. Fluorescent assays were conducted on day 4. On day 4, the medium was removed, the cells were washed with phosphate buffered saline (PBS) (Cat. No. MT21040CV from Fisher Scientific). Then, 25 μl of PBS were first loaded to each well followed by 25 μl of various test compounds. The third 25 μl of solution contained a mixture of Yo-Pro-1 and stimulus bzATP (2′(3′)-O-(4-Benzoylbenzoyl)adenosine-5′-triphosphate tri(triethylammonium) salt). The final concentration of Yo-Pro-1 was 2.5 μM and of bzATP 30 μM. Fluorescence increases were measured every 30 minutes in a microplate device with excitation at 475 nm and emission wavelength in the range of 500-550 nm. PPADS (Pyridoxalphosphate-6-azophenyl-2′,4′-disulfonic acid tetrasodium) was used as the positive control. The wells with no test compounds added nor bzATP and only containing PBS and Yo-Pro-1 were served as the negative control (N Contl). The positive control (P Contl) wells were the same as N Contl but contained the stimulus, bzATP in this case.
# Data used for analysis were from microplate readings 1 hour after bzATP stimulation. The result of each well was first normalized by its corresponding base microplate reading. The base microplate reading was the first reading right after all components were added. Then, the negative control signal was subtracted from. In the negative control, the test compound and the stimulus were replaced by PBS. An average of six highest values of the plate (AVG) were considered as 100% and the value of each well was divided by AVG and presented as the relative values in percentages.
# For comparison of the antagonistic effectiveness of the compounds of this invention among P2X receptors, assays were conducted at 5 μM. Among 55 compounds tested, 29 can reduce the P2X7R activity to […] of the normal activity (Table 2).
# [1] = compound at 5 μM, 30 μM bzATP stimulus, reading 1 hour after stimulation, transfected HEK-293 cells
remaining activity at 5 µM [1] [%],IC50 [µM],Compound,"Percentage of activity remains in the presence of the compound at 5 μM, P2X7R (Yo-Pro-1 Assay) [1] [%]"
–,–,"Cc1nc(N=Nc2ccc(S(=O)(=O)[O-])cc2S(=O)(=O)[O-])c(COP(=O)([O-])[O-])c(C=O)c1O.[Na+].[Na+].[Na+].[Na+] [PPADS, Pyridoxalphosphate-6-azophenyl-2′,4′-disulfonic acid tetrasodium, reference compound]",0.7
80.9,9.9,O=S(=O)(c1ccccc1)C1CN(S(=O)(=O)c2ccc(N3CCOCC3)cc2)C1 [#11],–
-1.7,0.9,O=C(CCc1ccccc1)NC1CCCN(S(=O)(=O)c2ccc(N3CCC(C(F)(F)F)CC3)cc2)C1 (stereo not drawn) [#42],–
-1.1,0.6,O=C(CCc1ccccc1)NC1CCCN(c2ccc(S(=O)(=O)Nc3ccccc3)cc2)C1 (stereo not drawn) [#50],–
43,12.6,CC(C)(C)OC(=O)N1CCN(c2ccc(S(=O)(=O)N3CCC(C(=O)NCCc4ccccc4)CC3)cc2)CC1 [#22],–
23.6,3.3,O=C(CCc1ccccc1)N1CCN(S(=O)(=O)c2ccc(N3CCCC3)cc2)CC1 [#35],–
14.1,6,CC(C)S(=O)(=O)c1ccc(N2CCCC(NC(=O)CCc3ccccc3)C2)cc1 (stereo not drawn) [#7],–
32.6,10.2,O=C(NCCc1ccccc1)C1CCCN(S(=O)(=O)c2ccc(N3CCOCC3)cc2)C1 (stereo not drawn) [#24],–
33.1,9.3,O=C(CCc1ccccc1)NC1CCCN(S(=O)(=O)c2ccc(N3CCCCC3)c(Cl)c2)C1 (stereo not drawn) [#45],–
0.8,1.6,O=C(CCc1ccccc1)NC1CCCN(S(=O)(=O)c2ccc(N3CCCC3)cc2)C1 (stereo not drawn) [#13],–
26,3.6,O=C1CCC(N2Cc3c(NC(=O)CCc4ccccc4)cccc3C2=O)C(=O)N1 (stereo not drawn) [#16],–
15.8,2.8,COc1ccc(S(=O)(=O)N2CCCC(NC(=O)CCc3ccccc3)C2)cc1 (stereo not drawn) [#2],–
59,9.3,CCCCNc1ccc(S(=O)(=O)N2CCC(C(=O)O)CC2)cc1 [#27],–
12.9,3,CC(C)(C)OC(=O)N1CCN(c2ccc(S(=O)(=O)N3CCN(C(=O)CCc4ccccc4)CC3)cc2)CC1 [#31],–
-9.3,1.5,O=C(CCc1ccccc1)NC1CCCN(c2ccc(S(=O)(=O)N3CCCCC3)cc2)C1 (stereo not drawn) [#54],–
7,1,O=C(NCCc1ccccc1)C1CCN(S(=O)(=O)c2ccc(N3CCCCC3)cc2)CC1 [#20],–
44.3,6.7,O=C(CCc1ccccc1)NC1CCCN(S(=O)(=O)c2ccc(N3CCOCC3)cc2)C1 (stereo not drawn) [#12],–
-7.3,0.2,O=C(CCc1ccccc1)NC1CCCN(S(=O)(=O)c2ccc(N3CCCCC3)cc2)C1 (stereo not drawn) [#5],–
4.8,2.7,O=C(CCc1ccccc1)N1CCN(S(=O)(=O)c2ccc(N3CCCCC3)cc2)CC1 [#34],–
-8.5,0.4,O=C(CCc1ccccc1)N1CCN(S(=O)(=O)c2ccc(NC3CCCCC3)cc2)CC1 [#33],–
10.2,16,O=C(CCc1ccccc1)NC1CCCN(S(=O)(=O)c2ccc(-n3cc(Br)cn3)cc2)C1 (stereo not drawn) [#9],–
47.3,11.5,CC(C)(C)OC(=O)N1CCN(c2ccc(S(=O)(=O)N3CCCC(C(=O)NCCc4ccccc4)C3)cc2)CC1 (stereo not drawn) [#36],–
7.5,0.9,O=C(CCc1ccccc1)NC1CCCN(S(=O)(=O)c2ccc(N3CCC(Oc4ccccc4)CC3)cc2)C1 (stereo not drawn) [#38],–
53.4,16.1,COCCOc1ccc(S(=O)(=O)N2CCCC(NC(=O)CCc3ccccc3)C2)cc1 (stereo not drawn) [#17],–
11.1,3.9,CC(C)OC1CCN(c2ccc(S(=O)(=O)N3CCCC(NC(=O)CCc4ccccc4)C3)cc2)CC1 (stereo not drawn) [#39],–
-6.1,1.4,CN(C)c1ccc(S(=O)(=O)N2CCCC(NC(=O)CCc3ccccc3)C2)cc1 (stereo not drawn) [#14],–
